Source: US20080207563A1, “METHOD FOR INHIBITING PROLIFERATION OF TUMOR CELLS” (priority 2007, published 2008)

Experiments:
[1] = tested on: HT-29 colorectal cancer cells; assay: Cell viability (MTT) assay, single agents and combinations with erlotinib; format: cell-based, human; details: for combination effect of the two drugs: erlotinib in the presence of low doses of MEK inhibitor, HT-29, simultaneous or sequential
Description: (§1) Cell respiration, as an indicator of cell viability, is measured by the reduction of 3-(4,5-Dimethylthiazol-2-yl)-2,5-diphenyltetrazolium bromide (MTT) to formazan. HT-29 cells are maintained in McCoy's 5a medium (modified) containing 10% fetal bovine serum and are seeded to 96-well microtiter dishes at 2,000 cells/well in a 100 μl volume while MDA-MB-468 cells are maintained in Dulbecco's modified Eagle's medium containing 10% fetal bovine serum and are seeded to 96-well microtiter dishes at 4,000 cells/well in a volume 100 μl. On the following day, the cells are exposed to compounds in an additional 100 μl at the indicated concentrations and cultured for 5 days. After the addition of 50 μl/well of a 5 mg/ml MTT stock in Dulbecco's phosphate-buffered saline (PBS), the cells are incubated for an additional 2.5 hours at 37° C. Thereafter, the medium is removed and 50 μl of 100% ethanol is added to each well to dissolve the formazan crystals. The conversion of MTT into formazan by viable cells is assessed by a microplate reader at 570 nm. The results are presented as a percentage of the viability of untreated cells (control), which are regarded as 100% viable.
(§2) Dose-response interactions (antagonism, additive, and synergism) of two drugs are expressed as the Fa-Cl (the fraction affected by dose-the combination index) plot using the method of Chou and Talalay described in Advances in Enzyme Regulation, Volume 22, pp. 27-55 (1984) processed by the computer software Calcusyn (BIOSOFT, Cambridge, UK). This program provides objective computerized evaluation procedures. For mutually non-exclusive drugs that have totally independent modes of action, Cl<1, =1, and >1 indicates synergism, additive effect, and antagonism, respectively. The data are supported by classic isobolograms made by the same program. The isobolograms can be generated at different effect levels, e.g., ED50, ED70 and ED90. When it is generated at ED50, if the combination data points for Fa=0.5 falls on the diagonal, an additive effect is indicated; if it falls on the lower left, synergism is indicated; and if it falls on the upper right, antagonism is indicated. If a single drug is not very effective, and an ED50 can not be achieved, the results Fa-Cl or Isobologram can not be provided. In this case, the results are shown as classic dose-effect relationship charts.

[2] = tested on: MDA-MB-468 breast cancer cells; assay: as above; format: cell-based, human; details: for growth suppression / growth inhibitory effect: single agent treatment, in vitro, MDA-MB-468
Description: as §1, §2

Structure (SMILES)	combination effect of the two drugs [1]	combination index (Cl) values, Isobolograms ([2]; combination with erlotinib, ED50, ED75, ED90, all three treatment schedules, CalcuSyn)	combination index (Cl), Fa-Cl plot ([2]; combination with erlotinib, Fa >40%, simultaneous or sequential addition, MTT on day 5, CalcuSyn)	combination effect of the two drugs ([2]; combination with erlotinib, MDA-MB-468, simultaneous or sequential)	growth suppression / growth inhibitory effect [2]	EC50 ([1]; Homo sapiens, single agent, HT-29, ED50 can not be reached) [µM]	sensitivity of the cells to single agent treatment ([1]; single agent, HT-29 (braf mutation))
C[C@@H](c1ccccc1)[C@@H](C(=O)Nc1ccc(I)cc1F)N1C(=O)N[C@H](c2ccc(OCCO)cc2)C1=O [Example 48, (2S,3S)—N-(2-Fluoro-4-iodo-phenyl)-2-{(R)-4-[4-(2-hydroxy-ethoxy)-phenyl]-2,5-dioxo-imidazolidin-1-yl}-3-phenyl-butyramide]	synergistic effects						
C[C@@H](c1ccccc1)[C@@H](C(=O)Nc1ccc(I)cc1F)N1C(=O)N[C@H](c2ccc(OC[C@H](O)CO)cc2)C1=O [Example 56, (2S,3S)-2-{(R)-4-[4-((R)-2,3-Dihydroxy-propoxy)-phenyl]-2,5-dioxo-imidazolidin-1-yl}-N-(2-fluoro-4-iodo-phenyl)-3-phenyl-butyramide]	synergistic effects	< 0.5	< 1	synergism	significantly less growth inhibitory effect		
C#Cc1cccc(Nc2ncnc3cc(OCCOC)c(OCCOC)cc23)c1 [erlotinib, N-(3-ethynylphenyl)-6,7-bis(2-methoxyethoxy)-4-quinazolinamine, reference compound]					significant growth suppression	> 30	very resistant
C[C@@H](c1ccccc1)[C@@H](C(=O)Nc1ccc(I)cc1Cl)N1C(=O)N[C@H](c2ccc(OC[C@H](O)CO)cc2)C1=O [Example 114, (2S,3S)—N-(2-Chloro-4-iodo-phenyl)-2-{(R)-4-[4-((R)-2,3-dihydroxy-propoxy)-phenyl]-2,5-dioxo-imidazolidin-1-yl}-3-phenyl-butyramide]	synergistic effects						
